# Key:
# [1] = test system: non-senescent IMR90 cells; assay: Cell counting assay, ABT-263 on non-senescent IMR90; assay type: cell-based, human; conditions: 3 μM, 24 hours
# Procedure: (§1) To determine whether ABT-263 is selectively toxic to senescent cells compared to non-senescent cells, a cell counting assay was used to determine cell survival following treatment with ABT-263. […] Each condition was seeded in three wells and counted independently. Cells were counted after a 24 hour exposure to ABT-263 (or control culture).
# [2] = test system: senescent (irradiated) IMR90 cells; assay: Cell counting assay, ABT-263 on senescent IMR90; assay type: cell-based, human; conditions: 3 μM, 24 hours
# Procedure: as §1
# [3] = test system: senescent (irradiated) IMR90 cells; assay: CellTiter-Glo cell viability assay, senescent IMR90; assay type: cell-based, human
# Procedure: (§2) To determine whether ABT-263 is selectively toxic to senescent cells compared to non-senescent cells, a cell viability assay was used to assess cell survival following treatment with ABT-263. IMR90 cells (human primary lung fibroblasts (IMR90) (IMR-90 (ATCC® CCL-186™, Mannassas, Va.) were seeded in six well plates, and cells were induced to senescence with 10 Gy of ionizing radiation (IR) (Day 0). The media was refreshed every 3 days. The senescent phenotype is allowed to develop for 7 days at which point a cell count was made to determine the baseline number of cells followed by seeding into 96-well plates. On day 8, the senescent cells (irradiated) and the non-senescent cells (the non-radiated cells), were exposed to serial dilutions of ABT-263 for a period of 3 days. ABT-263 concentrations ranged from 0.5 nM to 3 μM. Each condition was seeded in triplicate.
# (§3) After three days of treatment (Day 11), cells were assayed for cell survival using the commercially available CellTiter-Glo® (CTG) Luminescent Cell Viability Assay (Promega Corporation, Madison, Wis.). The assay determines the number of viable cells in culture based on the quantitation of ATP present which is an indicator of metabolically active cells.
# (§4) The experiments performed for assessing the effect of these other Bcl-2 inhibitors were performed essentially as described in Example 7. Cells were exposed to ABT-199 at serial dilution concentrations ranging from 15 nM to 100 μM (FIGS. 26 and 27). Cells were exposed to Obatoclax at concentrations ranging from 1.4 nM to 9 μM (FIG. 28).
# (§5) The effect of ABT-263 in combination with the Akt inhibitor MK-2206 was tested for selective toxicity of senescent cells compared to non-senescent cells in IMR90 cells. The methods of Example 7 were repeated except that cell cultures were exposed to 10 nM MK-2206 (Selleckem, Cat# S1078) in addition to serial dilutions of ABT-263.
# [4] = test system: non-senescent IMR90 cells; assay: CellTiter-Glo cell viability assay, non-senescent IMR90; assay type: cell-based; conditions: Homo sapiens, IMR-90, 72 h; IMR90, 3 days, CellTiter-Glo; read-out: IC50 on non-senescent cells
# Procedure: as §2, §3, §4, §5
# [5] = test system: senescent Primary Renal Cortical Cells (renal epithelial cells); assay: CellTiter-Glo cell viability assay, senescent renal epithelial cells; assay type: cell-based; conditions: 72 h, 3 days
# Procedure: as §2, §3
# (§6) The methods of Example 7 were repeated in other cell strains. […]
# [6] = test system: non-senescent Primary Renal Cortical Cells (renal epithelial cells); assay: CellTiter-Glo cell viability assay, non-senescent renal epithelial cells; assay type: cell-based; conditions: 72 h, 3 days
# Procedure: as §2, §3, §6
# [7] = test system: senescent HCA2 foreskin fibroblast cells; assay: CellTiter-Glo cell viability assay, senescent HCA2; assay type: cell-based; conditions: 72 h; HCA2, 3 days
# Procedure: as §2, §3, §6
# [8] = test system: non-senescent HCA2 foreskin fibroblast cells; assay: CellTiter-Glo cell viability assay, non-senescent HCA2; assay type: cell-based; conditions: 72 h; HCA2, 3 days; not toxic up to highest concentration
# Procedure: as §2, §3, §6
# [9] = test system: senescent (IMR90 Sen(IR)) and non-senescent (IMR90 NS) cells; assay: Senescent cell killing in presence or absence of pan-caspase inhibitor Q-VD-OPh (CellTiter-Glo); assay type: cell-based, human
# Procedure: After senescence was established, cells were re-seeded into 96 well plates. […] At the end of the assay time period, cells were counted. Each condition was seeded in three plate wells and counted independently. […] Cell survival was determined using the commercially available CellTiter-Glo® Luminescent Cell Viability Assay (Promega Corporation, Madison, Wis.). The assay determines the number of viable cells in culture based on the quantitation of ATP present which is an indicator of metabolically active cells.
# After senescence was established, cells were re-seeded into 96 well plates. […] At the end of the assay time period, cells were counted. Each condition was seeded in three plate wells and counted independently. […] Cell survival was determined using CellTiter-Glo® Luminescent Cell Viability Assay (Promega Corporation, Madison, Wis.). The assay determines the number of viable cells in culture based on the quantitation of ATP present which is an indicator of metabolically active cells.
# [10] = test system: 3MR or INK-ATTAC mice exposed to cigarette smoke; assay: Cigarette smoke exposure model (COPD), oxygen saturation; assay type: in vivo, mouse; conditions: after 2 months of cigarette smoke exposure
# Procedure: Six week-old 3MR (n=35) or INK-ATTAC (n=35) mice were chronically exposed to cigarette smoke generated from a Teague TE-10 system, an automatically-controlled cigarette smoking machine that produces a combination of side-stream and mainstream cigarette smoke in a chamber, which is transported to a collecting and mixing chamber where varying amounts of air is mixed with the smoke mixture. […] Mice received a total of 6 hours of cigarette smoke exposure per day, 5 days a week for 6 months. Each lighted cigarette (3R4F research cigarettes containing 10.9 mg of total particulate matter (TPM), 9.4 mg of tar, and 0.726 mg of nicotine, and 11.9 mg carbon monoxide per cigarette [University of Kentucky, Lexington, Ky.]) was puffed for 2 seconds and once every minute for a total of 8 puffs, with the flow rate of 1.05 L/min, to provide a standard puff of 35 cm^3. The smoke machine was adjusted to produce a mixture of side stream smoke (89%) and mainstream smoke (11%) by smoldering 2 cigarettes at one time. The smoke chamber atmosphere was monitored for total suspended particulates (80-120 mg/m^3) and carbon monoxide (350 ppm). Beginning at day 7, (10) INK-ATTAC and (10) 3MR mice were treated with AP20187 (3×per week) or gancyclovir (5 consecutive days of treatment followed by 16 days off drug, repeated until the end of the experiment), respectively. An equal number of mice received the corresponding vehicle. The remaining 30 mice (15 INK-ATTAC and 15 3MR) were evenly split with 5 of each genetically modified strain placed into three different treatment groups. One group (n=10) received Nutlin-3A (25 mg/kg dissolved in 10% DMSO/3% Tween-20 in PBS, treated 14 days consecutively followed by 14 days off drug, repeated until the end of the experiment). One group (n=10) received ABT-263 (Navitoclax) (100 mg/kg dissolved in 15% DMSO/5% Tween-20, treated 7 days consecutively followed by 14 days off drug, repeated until the end of the experiment), and the last group (n=10) received only the vehicle used for ABT-263 (15% DMSO/5% Tween-20), following the same treatment regimen as ABT-263.
# After two months of cigarette smoke exposure, lung function was assessed by monitoring oxygen saturation using the MouseSTAT PhysioSuite pulse oximeter (Kent Scientific). Animals were anesthetized with isoflurane (1.5%) and the toe clip was applied. Mice were monitored for 30 seconds and the average peripheral capillary oxygen saturation (SpO2) measurement over this duration was calculated.
# [11] = test system: paclitaxel treated p16-3MR mice; assay: Chemotherapy related side effects: voluntary exercise (wheel counts) after paclitaxel in p16-3MR mice; assay type: in vivo, mouse; conditions: ABT-263 100 mg/kg ip daily 7 days; ganciclovir 25 mg/kg ip daily 3 days
# Procedure: ABT-263 (100 mg/kg) was administered intraperitoneally daily for seven days after paclitaxel administration. Two days after the last dose of ABT-263, all groups of animals were housed in metabolic cages (promethion, sable systems international, Las Vegas, Nev.) to monitor voluntary exercise as determined by wheel counts. Data were collected and analyzed two days later. Clearance of senescent cells by ABT-263 and ganciclovir restored approximately 70% of wheel count reduction caused by chemotherapy treatment.
structure (smiles),measurement,setting,value
"CC1(C)CCC(c2ccc(Cl)cc2)=C(CN2CCN(c3ccc(C(=O)NS(=O)(=O)c4ccc(N[C@H](CCN5CCOCC5)CSc5ccccc5)c(S(=O)(=O)C(F)(F)F)c4)cc3)CC2)C1 [ABT-263, 4-[4-[[2-(4-chlorophenyl)-5,5-dimethylcyclohexen-1-yl]methyl]piperazin-1-yl]-N-[4-[[(2R)-4-morpholin-4-yl-1-phenylsulfanylbutan-2-yl]amino]-3-(trifluoromethylsulfonyl)phenyl]sulfonylbenzamide]",cell growth / survival of non-senescent cells versus starting level,[1],did not decrease the cell growth below the starting level
same,cell counts as percent of counts before treatment,[2],28%
same,IC50,"[3]; Homo sapiens, IMR-90, 72 h, IMR90, 3 days, CellTiter-Glo, read-out: IC50 on senescent cells",140 nM
same,in vitro theoretical therapeutic index,"[3]; IMR90, non-senescent versus senescent IC50",17
same,IC50,[4],2400 nM
same,IC50,[5],25 nM
same,IC50,[6],430 nM
same,IC50,[7],410 nM
same,IC50,[8],> 3000 nM
same,selective killing of senescent cells,"[9]; IMR90, 3 days",selectively kills senescent cells
same,percent of surviving senescent cells in the presence of the pan-caspase inhibitor,"[9]; Q-VD-OPh 20 μM, WEHI-539 1.67 or 5 μM, ABT-263 0.33 or 1 μM, 3 days",increased
same,senolytic activity in the presence of a caspase inhibitor,[9]; panCaspase inhibitor Q-VD-OPh,inhibited
same,SpO2 levels versus untreated controls,[10],statistically significant increases
same,restoration of wheel count reduction caused by chemotherapy treatment,[11],approximately 70%
